Laboratory results as given in patent publication US20230021483A1, “[…] […] METHOD AND CLASSIFICATION OF PHARMACEUTICAL COMPONENTS BY USING TRANSCRIPTOMES” (National Institutes of Biomedical Innovation, Health and …, priority 2016, published 2023).
“And” between values parts separate entries of the source, which are not always exact repeats. Equal entries are not always repeated.

How the values were obtained:
Assay type in all cases: in vivo, C57BL/6 mice
spleen (SP) = experiment: Whole organ transcriptome (GeneChip microarray) of spleen 6 h after adjuvant administration: sDEGs, hierarchical clustering; settings: hierarchical clustering; note: key: G1 (interferon signaling); G2 (metabolism of lipids and lipoproteins); G3 (response to stress); G4 (response to wounding); G5 (phosphate-containing compound metabolic process); G6 (phagosome)
[1] = system: inguinal lymph nodes (LN); experiment: Whole organ transcriptome (GeneChip microarray) of draining inguinal lymph nodes 6 h after adjuvant administration: sDEGs, gene modules, hierarchical clustering; for adjuvant group (cluster) in LN: key: G1 (interferon signaling); G2 (metabolism of lipids and lipoproteins); G3 (response to stress); G4 (response to wounding); G5 (phosphate-containing compound metabolic process); G6 (phagosome)
[2] = system: preferentially upregulated genes in LV, SP, LN; experiment: Z-score-based differential gene expression analysis (adjuvant group- or adjuvant-associated genes, 40 module mapping, TargetMine annotation); design: key to z sum, 1458589_at ---: sum of the per-gene fold-change z-scores of the triplicate samples; settings: ID
Procedure, shortened: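 Per-sample fold-change values converted to gene-wise z-scores within each organ's data set, then triplicate z-scores summed per adjuvant. Genes with summed score >3 taken as preferentially expressed; gene groups defined by combined per-adjuvant z-score thresholds (z>1 to z>3) specific to each organ.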

## Nc1nc2c(ncn2[C@@H]2O[C@@H]3COP(=O)(O)O[C@H]4[C@@H](O)[C@H](n5cnc6c(=O)[nH]c(N)nc65)O[C@@H]4COP(=O)(O)O[C@H]3[C@H]2O)c(=O)[nH]1 [cdiGMP, Cyclic diguanylate monophosphate]
Spleen (SP)
  adjuvant group (cluster) in SP: G1
[1]; LN, 6 h
  module M40^LN (immune system process; dendritic cells, macrophages, neutrophils, stromal cells): strongly induced
[1]; hierarchical clustering, lymph node
  adjuvant group (cluster) in LN: G1
[2]; LN, Modules 26
  z sum, 1428027_at LOC100653389: 3.943
[2]; LN, Modules 27
  z sum, 1419721_at Niacr1: 3.925
[2]; LN, Modules 29
  z sum, 1418424_at Tnfaip6: 3.961
  z sum, 1419534_at Olr1: 3.953
  z sum, 1421457_a_at Samsn1: 3.927
  z sum, 1422305_at Ifnb1: 3.959
  z sum, 1423028_at Ifna2: 3.966
  z sum, 1425837_a_at Ccrn4l: 3.961
  z sum, 1436387_at C330006P03Rik///Homer1: 3.967
  z sum, 1439349_at Sbno2: 3.94
  z sum, 1444010_at Eif4e: 3.936
  z sum, 1448325_at Ppp1r15a: 3.957
  z sum, 1449311_at Bach1: 3.924
  z sum, 1450297_at Il6: 3.956
  z sum, 1455197_at Rnd1: 3.976
  z sum, 1455899_x_at Socs3: 3.93
[2]; LN, Modules 34
  z sum, 1417252_at Ptgs2: 3.953
  z sum, 1417263_at Ptgs2: 3.945
  z sum, 1419132_at Tfr2: 3.95
  z sum, 1421473_at Il1a: 3.96
[2]; LN, Modules 35
  z sum, 1439981_at Tespa1: 3.95
  z sum, 1441843_s_at 5230400M03Rik: 3.967
  z sum, 1442556_at ---: 3.981
  z sum, 1443414_at C78513: 3.922
  z sum, 1444598_at ---: 3.93
  z sum, 1445534_at ---: 3.938
  z sum, 1446245_at ---: 3.919
  z sum, 1457944_at ---: 3.94
  z sum, 1458376_at B930025B16Rik: 3.963
  z sum, 1459144_at ---: 3.966
[2]; LN, Modules 36
  z sum, 1425687_at Cflar: 3.968
  z sum, 1427736_a_at Ccrl2: 3.958
  z sum, 1449169_at Has2: 3.922
  z sum, 1453636_at Pcgf5: 3.972
  z sum, 1457888_at ---: 3.925
[2]; LN, Modules 37
  z sum, 1419508_at Ripk1: 3.938
  z sum, 1421578_at Ccl4: 3.99
  z sum, 1421679_a_at Cdkn1a: 3.98
  z sum, 1424638_at Cdkn1a: 3.93
  z sum, 1433508_at Klf6: 3.947
  z sum, 1434350_at Csrnp1: 3.966
  z sum, 1439680_at Tnfsf10: 3.927
  z sum, 1448724_at Cish: 3.94
  z sum, 1451340_at Arid5a: 3.953
  z sum, 1453851_a_at Gadd45g: 3.961
  z sum, 1457404_at Nfkbiz: 3.989
  z sum, 1458589_at ---: 3.945
[2]; LN, Modules 40
  z sum, 1422054_a_at 5kil: 3.92
  z sum, 1428735_at Cd69: 3.941
[2]; LN, samples x1-x3, Modules 26
  z-score of fold change, 1428027_at LOC100653389: 1.302 and 1.534 and 1.106
[2]; LN, samples x1-x3, Modules 27
  z-score of fold change, 1419721_at Niacr1: 1.493 and 1.403 and 1.03
[2]; LN, samples x1-x3, Modules 29
  z-score of fold change, 1418424_at Tnfaip6: 1.141 and 1.631 and 1.189
  z-score of fold change, 1419534_at Olr1: 1.484 and 1.094 and 1.375
  z-score of fold change, 1421457_a_at Samsn1: 1.437 and 1.192 and 1.298
  z-score of fold change, 1422305_at Ifnb1: 0.997 and 1.431 and 1.532
  z-score of fold change, 1423028_at Ifna2: 1.076 and 1.31 and 1.58
  z-score of fold change, 1425837_a_at Ccrn4l: 1.34 and 1.091 and 1.529
  z-score of fold change, 1436387_at C330006P03Rik///Homer1: 1.372 and 1.437 and 1.158
  z-score of fold change, 1439349_at Sbno2: 1.367 and 1.407 and 1.166
  z-score of fold change, 1444010_at Eif4e: 1.659 and 1.049 and 1.227
  z-score of fold change, 1448325_at Ppp1r15a: 1.314 and 1.203 and 1.441
  z-score of fold change, 1449311_at Bach1: 1.178 and 1.558 and 1.189
  z-score of fold change, 1450297_at Il6: 1.437 and 0.989 and 1.53
  z-score of fold change, 1455197_at Rnd1: 1.54 and 1.27 and 1.166
  z-score of fold change, 1455899_x_at Socs3: 1.206 and 1.544 and 1.18
[2]; LN, samples x1-x3, Modules 34
  z-score of fold change, 1417252_at Ptgs2: 1.507 and 1.214 and 1.232
  z-score of fold change, 1417263_at Ptgs2: 1.51 and 0.965 and 1.47
  z-score of fold change, 1419132_at Tlr2: 1.576 and 1.128 and 1.246
  z-score of fold change, 1421473_at Il1a: 1.525 and 1.178 and 1.257
[2]; LN, samples x1-x3, Modules 35
  z-score of fold change, 1439981_at Tespa1: 1.343 and 1.427 and 1.18
  z-score of fold change, 1441843_s_at 5230400M03Rik: 1.442 and 1.354 and 1.171
  z-score of fold change, 1442556_at ---: 1.421 and 1.315 and 1.245
  z-score of fold change, 1443414_at C78513: 1.402 and 0.963 and 1.557
  z-score of fold change, 1444598_at ---: 1.559 and 1.318 and 1.053
  z-score of fold change, 1445534_at ---: 1.345 and 1.515 and 1.078
  z-score of fold change, 1446245_at ---: 1.239 and 1.22 and 1.46
  z-score of fold change, 1457944_at ---: 1.366 and 1.428 and 1.146
  z-score of fold change, 1458376_at B930025B16Rik: 1.188 and 1.502 and 1.273
  z-score of fold change, 1459144_at ---: 1.275 and 1.199 and 1.493
[2]; LN, samples x1-x3, Modules 36
  z-score of fold change, 1425687_at Cflar: 1.199 and 1.3 and 1.469
  z-score of fold change, 1427736_a_at Ccrl2: 1.328 and 1.075 and 1.554
  z-score of fold change, 1449169_at Has2: 1.306 and 1.158 and 1.458
  z-score of fold change, 1453636_at Pcgf5: 1.332 and 1.143 and 1.496
  z-score of fold change, 1457888_at ---: 1.466 and 1.08 and 1.38
[2]; LN, samples x1-x3, Modules 37
  z-score of fold change, 1419508_at Ripk1: 1.035 and 1.437 and 1.467
  z-score of fold change, 1421578_at Ccl4: 1.402 and 1.22 and 1.368
  z-score of fold change, 1421679_a_at Cdkn1a: 1.429 and 1.421 and 1.13
  z-score of fold change, 1424638_at Cdkn1a: 1.624 and 1.232 and 1.074
  z-score of fold change, 1433508_at Klf6: 1.271 and 1.413 and 1.263
  z-score of fold change, 1434350_at Csrnp1: 1.353 and 1.305 and 1.308
  z-score of fold change, 1439680_at Tnfsf10: 1.169 and 1.36 and 1.399
  z-score of fold change, 1448724_at Cish: 1.476 and 1.357 and 1.106
  z-score of fold change, 1451340_at Arid5a: 1.5 and 1.292 and 1.161
  z-score of fold change, 1453851_a_at Gadd45g: 1.368 and 1.383 and 1.21
  z-score of fold change, 1457404_at Nfkbiz: 1.371 and 1.232 and 1.386
  z-score of fold change, 1458589_at ---: 1.137 and 1.339 and 1.469
[2]; LN, samples x1-x3, Modules 40
  z-score of fold change, 1422054_a_at 5kil: 1.491 and 1.218 and 1.211
  z-score of fold change, 1428735_at Cd69: 1.22 and 1.344 and 1.378
[2]; LV, sample x1
  Adar 1425405_a_at (Group G1, Modules 20): 1.58
  Adar 1434268_at (Group G1, Modules 20): 1.7
  Ddx58 1436562_at (Group G1, Modules 20): 0.94
  Ddx58 1456890_at (Group G1, Modules 20): 1.2
  Eif2ak2 1422005_at (Group G1, Modules 20): 1.02
  G3bp2 1421323_a_at (Group G1, Modules 20): 1.74
  Gm9706///Isg15 1431591_s_at (Group G1, Modules 20): 1.01
  H2-T10///H2-T22///H2-T9 1449875_s_at (Group G1, Modules 20): 1.07
  Ifih1 1426276_at (Group G1, Modules 20): 0.89
  Ifit1 1450783_at (Group G1, Modules 20): 2.21
  Ifit3 1449025_at (Group G1, Modules 20): 1.7
  Irf7 1417244_a_at (Group G1, Modules 20): 0.85
  Irgm1 1418825_at (Group G1, Modules 20): 1.33
  Mndal 1426906_at (Group G1, Modules 20): 1.77
  Pml 1448757_at (Group G1, Modules 20): 1.41
  Pml 1456103_at (Group G1, Modules 20): 1.31
  Rnf213 1455500_at (Group G1, Modules 20): 2.07
